Measurements taken from US10060908B2, “Oxidized cardiolipin as a pro-inflammatory factor” (MEDIRISTA BIOTECHNOLOGIES AB, priority 2008, dated 2018).

T1: Annexin A5 (Homo sapiens, UniProt P08758)
T1 construct: purchased Bender MedSystems GmbH, Austria
T1 sequence (P08758 1-320): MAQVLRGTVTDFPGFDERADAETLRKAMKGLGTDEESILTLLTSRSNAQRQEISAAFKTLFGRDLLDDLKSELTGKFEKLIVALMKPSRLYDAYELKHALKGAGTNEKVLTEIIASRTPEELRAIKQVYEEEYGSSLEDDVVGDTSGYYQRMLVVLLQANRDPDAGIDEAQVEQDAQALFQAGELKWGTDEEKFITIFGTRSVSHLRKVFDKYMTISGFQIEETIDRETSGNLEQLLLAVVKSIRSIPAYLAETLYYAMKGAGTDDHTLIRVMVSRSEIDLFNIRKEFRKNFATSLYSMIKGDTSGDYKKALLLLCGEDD

B1: Annexin A5: member of the Annexin superfamily with anti-thrombotic properties; from Bender MedSystems (protein, UniProt P08758 2-320, looked up)
Annexin A5: AQVLRGTVTDFPGFDERADAETLRKAMKGLGTDEESILTLLTSRSNAQRQEISAAFKTLFGRDLLDDLKSELTGKFEKLIVALMKPSRLYDAYELKHALKGAGTNEKVLTEIIASRTPEELRAIKQVYEEEYGSSLEDDVVGDTSGYYQRMLVVLLQANRDPDAGIDEAQVEQDAQALFQAGELKWGTDEEKFITIFGTRSVSHLRKVFDKYMTISGFQIEETIDRETSGNLEQLLLAVVKSIRSIPAYLAETLYYAMKGAGTDDHTLIRVMVSRSEIDLFNIRKEFRKNFATSLYSMIKGDTSGDYKKALLLLCGEDD

Experiments:
[1] = molecular target: T1, Annexin A5; experiment: ELISA for Annexin A5 binding to coated cardiolipins; settings: lipid 5 ug/ml coated overnight; Annexin A5 0.32-10.24 ug/ml
Experimental: After five washings with PBS, the plates were blocked with 2% PBS-BSA for 2 h at room temperature. Annexin A5 were added and incubated for 1 hour. After washing, bound annexin A5 was detected by incubating subsequently with rabbit anti-human annexin V polyclonal antibodies (Hyphen Biomed, Andresy, France) 1:2000 and polyclonal goat anti-rabbit Immunoglobulins/AP (DakoCytomation) 1:3000 were used. The reaction was developed with alkaline phosphatase substrate (Sigma), and optical density (OD) was read at 405 nm with an ELISA Multiscan Plus spectrophotometer (Molecular Devices Emax, San Francisco). All samples were measured in duplicates and the coefficient of variation was below 15%.

[2] = system: VCAM-1 (CD106); experiment: Adhesion molecule expression by endothelial cells, flow cytometry (VCAM-1); type: cell-based, human; settings: HUVECs, 24 h
Experimental: (§1) Pooled human umbilical vascular endothelial cells (HUVECs) at passage 2 were purchased from Cascade Biologics, Inc (Portland, Ore). Cultures were maintained in EGM™ phenol red-free medium (Clonetics, San Diego, Calif.), containing 2% of fetal bovine serum and supplements, at 37° C. under humidified 5% CO2 conditions. All experiments were performed at passage 3 to 5. HUVECs were seeded at 6×10^4 cells/2 mL density on 6-well plates (NUNC Inc, Naperville, Ill.). After allowing endothelial cells overnight for attachment, cells were ready for stimulation.
(§2) After washing with PBS, OxCL and reduced CL (20 ug/ml) were added. For annexin A5 (From Bender MedSystems GmbH, Austria) inhibition study, OxCL was incubated with Annexin A5 (10 ug/ml) for half hour before adding to cells. After 24 hours incubation, detached floating cells were washed away, cell were harvested into Falcon FACS tubes. […] The intercellular adhesion molecule (ICAM-1) CD54 and the vascular cell adhesion molecule (VCAM-1) CD106 were studied with flow cytometry analysis equipped with CellQuest software. For each sample, 10,000 events were analyzed.

[3] = system: leukotriene B4; experiment: Leukotriene B4 release from neutrophils, EIA; type: cell-based; settings: human neutrophils
Experimental: (§3) Human PMNs were isolated from freshly prepared buffy coats (Karolinska Hospital blood bank, Stockholm, Sweden) by dextran sedimentation, hypotonic lysis of erythrocytes and gradient centrifugation on Lymphoprep (Axis-Shield PoC AS, Oslo, Norway). PMNs were suspended at a density of 10×10^6/ml in Dulbecco's PBS (Gibco (Invitrogen), Paisley, UK). PMN purity (>95%) and viability (>98%) was determined using Hemacolor (J. T. Baker, Utrecht, Holland) and Trypan Blue (Sigma Chemical Co.) staining, respectively.
(§4) Analysis of leukotriene B4 Biosynthesis by EIA kit 2×10^6 macrophages were incubated with different agents according to the experimental design, and then quenched with an equal volume methanol. After acidified to pH 3-4, the samples were purified by solid-phase extraction (Supelclean™ LC-18, Supelco) and eluted in methanol. After dried under nitrogen, the samples were re-suspended in EIA buffer. The level of LTB4 was determined with LTB4 EIA kit (Cayman Chemical) by using dilutions within the linear portion of the standard curve.

[4] = system: CD8-positive T-cells; experiment: Activation of CD8-positive T cells (CD69), flow cytometry; type: cell-based; settings: human PBMC, 5 ug/ml over night
Experimental: Both CD4 and CD8 positive T cells were studied. Quadrant Q2 represent (%) T-cells positive for CD69 expressing and thus activated T-cells.
Both CD4 and CD8 positive T-cells from the cell line Human PBMC where studied in an incubation setup illustrated in FIG. 11A-F. Both T-cell types where incubated with, buffer (control), oxCL or CL to determine the effect on activation, interpreted by the expression of CD69 surface molecule after stimulation.
In this experiment the attention must be drawn to the quadrant Q2 of the flow cytometry data shown. This quadrant represents the percentage of T-cells in the population tested to be CD69 positive, e.g. activated by the stimuli prior to the data collection.

[5] = system: IL-6; experiment: IL-6 production by HUVEC, protein multiplex immunoassay; type: cell-based, human; settings: HUVECs, 24 h; for IL-6 levels of the substance alone compared with the control group: 20 ug/ml
Experimental: HUVEC cells from above were seeded at density 10^6/2 ml into 6 well plates. Allowing cells attachment for 24 hours, OxCL (20 ug/ml) with or without Annexin A5 (20 ug/ml) and reduced CL were added and incubated for 24 hours. Cell supernatant were collected and IL-6 and IL-8 production were measured with protein multiplex immunoassay kits (from Bioscource, USA) and Bio-PIei™ system (BioRad, USA).

[6] = system: THP-1 differentiated macrophages; experiment: Uptake of Dil-labeled OxLDL in macrophages, flow cytometry; type: cell-based, human; settings: competitor 40, 80 ug/ml (LDL 40 ug/ml), Dil-OxLDL 5 ug/ml, 4 hours
Experimental: OxLDL (Industrylane Frederick) were incubated with Dil (Molecular Probes Engene, Oregon, USA) in lipoprotein-deficient serum (Sigma) at 37° C. for 15 hours. Then dialyzed against saline-EDTA buffer for 6 hours.
Uptake of Dil-labelled OxLDL was studied either by Flow cytometry or Fluorescence/confocal microscopy. For microscopy, The macrophages 1×10^6 were grown overnight on culture slides (Nunc, Naperville, N.Y.), For flow cytometry, The macrophages were plated in a 6-well plate at density of 1×10^6 cells/well in DMEM (INVITROGEN, USA) containing 10% FBS overnight. […] Thereafter, the cells from above were washed 4 times with 0.2% BSA/PBS and once with PBS. The cells were harvested in PBS containing 0.1% BSA and 0.01% NaN3. Mean fluorescence intensity was measured by flow cytometry (BD Biosciences, San Jose, Calif., USA). For each sample, fluorescence emission above 550 nm was measured and a minimum of 10.000 cells was analyzed.

[7] = system: ICAM-1 (CD54); experiment: Adhesion molecule expression by endothelial cells, flow cytometry (ICAM-1); type: cell-based, human; settings: HUVECs, 24 h
Experimental: as §1, §2

[8] = system: neutrophils; experiment: Intracellular calcium mobilization, FURA-2AM fluorometer; type: cell-based, human; settings: for MFI of calcium mobilization: within 120 seconds
Experimental: as §3
Neutrophils were added into black, 96-well plates with transparent bottom (Corning Costar; 5×10^4 cells/well), and spin down the plate at 120×g for 3 min, afterwards changing the medium containing 4 μM FURA-2AM (Fura-2 acetoxymethyl ester), or buffer as appropriate, and the cells were incubated for 30 min at 37° C. and 5% CO2. Cells were washed four times with 50 μl of a buffer solution (135 mM NaCl, 4.6 mM KCl, 1.2 mM MgCl2, 1.5 mM CaCl2, 11 mM glucose, 11 mM Hepes, pH 7.4) before a final 45 μl volume of buffer was added to each well.
The plates were transferred to a fluorometer (Fluostar™, BMG Technologies), and 50 μl of different agonists according to experimental designs or buffer solution as control were injected into individual wells and the cells were monitored for the next 120 seconds. Control wells containing cells that had not been exposed to FURA-2AM were used to subtract background auto-fluorescence. The results are given as the ratio of mean fluorescence intensity (MFI) between 340 and 380 nm, and normalized by control.

[9] = system: LTB4; experiment: Leukotriene B4 biosynthesis in macrophages, EIA; type: cell-based; settings: human monocyte-derived macrophages
Experimental: Human mononuclear cells were isolated from freshly prepared buffy coats (Karolinska Hospital blood bank, Stockholm, Sweden) by gradient centrifugation on Ficoll-Paque (Amersham Biosciences, Uppsala, Sweden). The mononuclear cells were cultured at a density of 5×10^6/ml in RPMI-1640 medium with 25 mM Hepes, 1% L-glutamine, 1% penicillin-streptomycin and 10% FBS. After 7 days, there are proximate 2×10^6 macrophages per well.
as §4

[10] = oxCL 20 ug/ml preincubated with Annexin A5 10 ug/ml

| Molecule | binding to Annexin A5 [1] | VCAM-1 expression ([2]; 20 ug/ml) | leukotriene B4 release [3] | CD69 expression (activation) of CD8-positive T cells [4] | IL-6 levels of the substance alone compared with the control group [5] | competition of dil-oxLDL uptake (in words) [6] | ICAM-1 expression ([7]; 20 ug/ml) | MFI of calcium mobilization [8] | inhibition of oxCL-induced VCAM-1 (CD106) expression [2, 10] | inhibition of OxCL-induced LTB4 production [9] | IL-6 level, oxCL with Annexin A5 ([5]; oxCL 20 ug/ml with Annexin A5 20 ug/ml) [pg/mL] | inhibition of oxCL-induced ICAM-1 (CD54) expression [7, 10] | inhibition of oxCL-induced calcium mobilization ([8]; oxCL incubated with Annexin A5) |
| --- | --- | --- | --- | --- | --- | --- | --- | --- | --- | --- | --- | --- | --- |
| Cardiolipin [CL] | can bind | did not show the same effect | did not show the similar reaction | not | could not significantly increase | did not show the competition effetcts | did not show the same effect | did not increase | – | – | – | – | – |
| Hydro heart cardiolipin [reduced CL] | could not bind | – | – | – | – | not | – | – | – | – | – | – | – |
| B1 | – | – | – | – | could not significantly increase | – | – | did not increase | significantly inhibited | greatly inhibited | 276.4 ± 28.62 | significantly inhibited | greatly inhibited |
